Counter-ions that a name gives are not always drawn. Like-named read-outs stand apart in the source and are kept apart here.
How the values were obtained:
[1] = test system: absorption of sodium from the intestinal lumen; experiment: Inhibition of intestinal sodium absorption in mice; assay type: in vivo, mouse; conditions: CD-1 mice, 15 mg/kg oral gavage twice daily for 3 days
[2] = test system: absorption of sodium from the intestinal lumen; experiment: Inhibition of intestinal sodium absorption in rats; assay type: in vivo, rat; conditions: Sprague Dawley rats, 0.1 mg/kg oral gavage, 13-hours post-dose
Protocol: Urinary sodium excretion and fecal form were measured to assess the ability of selected example compounds to inhibit the absorption of sodium from the intestinal lumen. Eight-week old, male, Sprague Dawley rats were purchased from Envigo (Livermore, Calif.), were housed 2 per cage and acclimated for at least 48 hours before study initiation. Animals were fed Harlan Teklad Global TD.160470 rodent chow (Maddison, Wis.), standard laboratory rodent chow Harlan Teklad Global 2018 with the addition of 0.4% inorganic phosphorous. […] At 13-hours post-dose, urine samples were collected and fecal form was assessed. In addition, the weight of food consumed over the 13-hour period was measured and recorded. Fecal forms were scored according to a common scale associated with increasing fecal water to the wettest observation in the cage's collection funnel (1, normal pellet; 2, pellet adhering to sides of collection funnel due to moisture; 3, loss of normal pellet shape: 4, complete loss of shape with a blotting pattern; 5, liquid fecal streams evident). Fecal form score (FFS) was calculated for each group as the median of each individual rat's FFS within the group and reported in Table 12. Fecal samples were dried using a lyophilizer for at least 3 days, following which dry weight was recorded and fecal fluid content was calculated based on the difference between the wet and dry stool weights. […]

rat NHE-3 = target: T1, rat NHE-3 (Rattus norvegicus, UniProt P26433); experiment: Cell-based assay of NHE-3 activity (Pharmacological Test Example 1); conditions: OK cells expressing rat NHE-3; 0-30 uM test compound, 5 uM EIPA; read-out: rat NHE-3 Average pIC50 (converted)
T1 construct: expressed in transfected cells; host or cells: Opossum kidney (OK) cells (ATCC), electroporated
T1 sequence (P26433 29-831): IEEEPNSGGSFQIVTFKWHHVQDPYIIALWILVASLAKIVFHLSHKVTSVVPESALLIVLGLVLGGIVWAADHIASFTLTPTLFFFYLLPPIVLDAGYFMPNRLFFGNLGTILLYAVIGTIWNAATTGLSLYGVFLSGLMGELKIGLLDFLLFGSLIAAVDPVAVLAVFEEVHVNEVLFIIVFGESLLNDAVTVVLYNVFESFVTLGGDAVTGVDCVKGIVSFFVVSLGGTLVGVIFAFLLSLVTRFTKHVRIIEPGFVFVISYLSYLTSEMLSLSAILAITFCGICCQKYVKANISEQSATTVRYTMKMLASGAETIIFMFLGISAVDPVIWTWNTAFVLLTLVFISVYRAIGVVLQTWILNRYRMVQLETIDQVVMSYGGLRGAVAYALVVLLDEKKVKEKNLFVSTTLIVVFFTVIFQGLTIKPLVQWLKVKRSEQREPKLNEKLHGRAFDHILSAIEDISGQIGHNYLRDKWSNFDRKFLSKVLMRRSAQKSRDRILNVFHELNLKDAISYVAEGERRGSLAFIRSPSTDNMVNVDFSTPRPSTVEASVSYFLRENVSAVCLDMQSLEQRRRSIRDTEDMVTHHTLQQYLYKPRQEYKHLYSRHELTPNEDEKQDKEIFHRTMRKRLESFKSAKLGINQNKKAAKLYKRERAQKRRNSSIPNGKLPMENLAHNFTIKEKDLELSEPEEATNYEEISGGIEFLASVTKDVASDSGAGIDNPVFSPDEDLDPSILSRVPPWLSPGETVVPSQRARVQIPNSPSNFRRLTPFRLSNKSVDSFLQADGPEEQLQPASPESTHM
Summary of the method: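 OK cells electroporated with rat NHE-3, loaded with 5 uM BCECF-AM in NH4Cl-HEPES (pH 7.4) for 30 min at room temperature, then acid-loaded 10 min in Na+-free choline buffer. Na+-dependent H+ antiport read as initial rate of pH-dye change; pIC50 from 3-6 replicate averages.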

fecal water content = experiment: Pharmacodynamic model: effect of test compounds on fecal water content; assay type: in vivo, rat; conditions: female Sprague Dawley rats, 3 mg/kg oral, feces collected 16 hrs; for % Fecal water: mean of 6
Protocol: Normal female Sprague Dawlev rats (Charles-River laboratories international, Hollister, Calif.), 7-8 weeks old with body weight 175-200 g were acclimated for at least 3 days before proceeding to experiments. The animals were provided food (Harlan Teklad 2018c) and water ad lib, through the experiment. Animals were randomly grouped with 6 rats per group.
The experiments were initiated by orally dosing test compounds at 3 mg/kg in volume of 10 ml/kg. Rats from control group were gavaged with the same volume of vehicle (water). After dosing, rats were placed in metabolic cages for 16 hrs (overnight). Food and water consumption were monitored. After sixteen hours, feces and urine were collected. The percent of fecal water was measured by weighing fecal samples before and after drying.
Representative data of % fecal water content are shown in Table 12 (data are expressed as means, with 6 animals per data point). The differences between control and treated groups were evaluated by one way ANOVA with Dunnett post tests. Results are significant if p<0.05.

[3] = Determination of compound remaining in feces; assay type: in vivo, rat; conditions: 0.1 mg/kg oral gavage; for recovery in 72-hour fecal samples: three rats; for dose excreted: Sprague-Dawley, rat, faeces, po, 0.1 mg/kg, read-out: % Recovery ± SD from 72-hour fecal samples
Protocol: Sprague-Dawley rats were orally gavaged with test article. A low dose of compound (0.1 mg/kg) was selected so that feces would remain solid and practical to collect. For both Examples 202 and 203, three rats were dosed, and following dosage of compounds, the rats were placed in metabolic cages for 72 hours. After 72 hours, fecal samples were recovered and dried for 48 hours. Dried fecal samples were ground to a powdered from, and for each rat, 10 replicates of 50 mg samples were extracted with acetonitrile. Insoluble materials were removed by centrifugation and supernatants analyzed by LC/MS/MS and compared against a standard curve to determine compound concentration. The amount of compound actually dosed was determined by LC/MS/MS analysis of the dosing solutions. The total amount of compound present in the 72-hour fecal samples was compared to the total amount of compound dosed, and reported as percentage of total dose recovered.

[4] = test system: gastrointestinal motility; experiment: Restoration of gastrointestinal motility in opioid induced constipation (loperamide); assay type: in vivo, mice; conditions: 15 mg/kg oral gavage, loperamide s.c., Evans Blue dye front after 30 minutes
[5] = day 3, normalized to dietary sodium intake

SMILES	Fecal fluid content (Δ from vehicle) ([1]; day 3)	Fecal Na Excretion (% of vehicle) [1, 5]	Urinary Na Excretion (% of vehicle) [1, 5]	Urinary Na (% of Vehicle, out/in) ([2]; normalized to dietary sodium intake)	FFS (1-5) ([2]; fecal form score, group median)	IC50 (rat NHE-3)	% Fecal water (% of control) (fecal water content)	% Fecal water (fecal water content)	recovery in 72-hour fecal samples [3]	dose excreted ([3]; Rat 1)	dose excreted ([3]; Rat 2)	dose excreted ([3]; Rat 3)	% Restoration of Transit [4]
CN1Cc2c(Cl)cc(Cl)cc2[C@H](c2cccc(S(=O)(=O)NCCOCCOCCNC(=O)Nc3ccc(NC(=O)NCCOCCOCCNS(=O)(=O)c4cccc([C@@H]5CN(C)Cc6c(Cl)cc(Cl)cc65)c4)cc3)c2)C1 (single isomer, unassigned) [Example 203, (S or R)—N,N′-(2,2′-(2,2′-(2,2′-(1,4-phenylenebis(azanediyl))bis(oxomethylene)bis(azanediyl)bis(ethane-2,1-diyl))bis(oxy)bis(ethane-2,1-diyl))bis(oxy)bis(ethane-2,1-diyl))bis(3-((S or R)-6,8-dichloro-2-methyl-1,2,3,4-tetrahydroisoquinolin-4-yl)benzenesulfonamide) bis-hydrochloride salt]	C (>10)	C (>200%)	C (<50%)	C (<40%)	3	< 100 nM	130% of control	61%	near quantitative recovery	100 ± 6.7%	75.8 ± 8.2%	104 ± 7.1%	
CN1Cc2c(Cl)cc(Cl)cc2[C@H](c2cccc(S(=O)(=O)NCCOCCOCCNC(=O)NCCCCNC(=O)NCCOCCOCCNS(=O)(=O)c3cccc([C@@H]4CN(C)Cc5c(Cl)cc(Cl)cc54)c3)c2)C1 (single isomer, unassigned) [Example 202, (S or R)—N,N′-(10,17-dioxo-3,6,21,24-tetraoxa-9,11,16,18-tetraazahexacosane-1,26-diyl)bis(3-((S)-6,8-dichloro-2-methyl-1,2,3,4-tetrahydroisoquinolin-4-yl)benzenesulfonamide) bis-hydrochloride salt]						< 100 nM	134% of control	63%	near quantitative recovery	93.8 ± 11.8%	90.5 ± 5.5%	92.4 ± 10.6%	C (>40%)

Source: patent US20190374533A1, “COMPOUNDS AND METHODS FOR INHIBITING NHE-MEDIATED ANTIPORT IN THE TREATMENT OF DISORDERS ASSOCIATED WITH FLUID RETENTION OR SALT OVERLOAD AND GASTROINTESTINAL TRACT DISORDERS” (Ardelyx, Inc., priority 2008, published 2019)
